Data: US20230150986A1, “ANTAGONISTS OF THE MUSCARINIC ACETYLCHOLINE RECEPTOR M4” (Vanderbilt University, priority 2019, published 2023)

Target: T1, Human M4 (Homo sapiens, UniProt P08173)
T1 construct: Human or rat M4 cDNA, along with the chimeric G protein Gq,5, were transfected into Chinese hamster ovary (CHO-K1) cells; expressed in transfected cells; host or cells: CHO-K1 (M4/Gqi5/CHO)
T1 sequence (P08173 1-479): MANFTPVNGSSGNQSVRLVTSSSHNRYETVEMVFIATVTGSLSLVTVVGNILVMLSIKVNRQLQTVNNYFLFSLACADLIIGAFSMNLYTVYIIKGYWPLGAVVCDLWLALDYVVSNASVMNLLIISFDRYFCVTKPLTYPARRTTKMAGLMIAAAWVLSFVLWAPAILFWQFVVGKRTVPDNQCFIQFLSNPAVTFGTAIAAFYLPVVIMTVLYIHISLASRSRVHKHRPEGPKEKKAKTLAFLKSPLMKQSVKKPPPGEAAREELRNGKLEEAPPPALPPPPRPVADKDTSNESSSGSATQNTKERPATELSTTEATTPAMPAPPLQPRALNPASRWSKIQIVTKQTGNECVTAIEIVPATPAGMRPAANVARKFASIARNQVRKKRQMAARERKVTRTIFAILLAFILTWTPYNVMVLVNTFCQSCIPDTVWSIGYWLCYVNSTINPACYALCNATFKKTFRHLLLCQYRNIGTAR
Test: mAChR M4 cell-based functional assay (calcium flux, decrease of EC80 acetylcholine response)
Details: for Human M4 Emin: % ACh maximum at 30 μM; for IC50: CHO-K1 cells with human M4 and Gqi5, EC80 acetylcholine
How it was run: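 CHO-K1 cells stably co-expressing M4 with chimeric Gqi5, loaded with Fluo-4 AM for 50 min at 37 °C; compounds added as 10-point 1:3 curves, then acetylcholine at EC20 (143 s) and EC80 (268 s). Calcium read by FDSS fluorescence ratio; IC50 from four-parameter fit of decrease in EC80 acetylcholine response.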

| Compound | Human M4 Emin | IC50 |
| --- | --- | --- |
| OC1(CN2C[C@H]3C[C@H](Nc4ccc(-c5cc(F)cc(F)c5F)nn4)C[C@H]3C2)CCCCCC1 [Compound 62] | 3% | 3300 nM |
| Fc1cc(F)c(F)c(-c2ccc(N[C@H]3C[C@@H]4CN(CC5CCCCO5)C[C@@H]4C3)nn2)c1 (single isomer, unassigned) [Compound 26] | 3% | 1.24 nM |
| [2H]C([2H])([C@H]1CCCCO1)N1C[C@H]2C[C@H](Nc3ccc(-c4cc(F)cc(F)c4F)nn3)C[C@H]2C1 [Compound 40, (3aR,5s,6aS)-2-(((R)-tetrahydro-2H-pyran-2-yl)methyl-d2)-N-(6-(2,3,5-trifluorophenyl)pyridazin-3-yl)octahydrocyclopenta[c]pyrrol-5-amine] | 3% | 1.48 nM |
| Fc1cc(F)c(F)c(-c2ccc(N[C@H]3C[C@@H]4CN(C5CCCCC5)C[C@@H]4C3)nn2)c1 [Compound 34, (3aR,5s,6aS)-2-cyclohexyl-N-(6-(2,3,5-trifluorophenyl)pyridazin-3-yl)octahydrocyclopenta[c]pyrrol-5-amine] | 2% | 38.7 nM |
| CC(C1CCOCC1)N1C[C@H]2C[C@H](Nc3ccc(-c4cc(F)cc(F)c4F)nn3)C[C@H]2C1 (stereo partly drawn) [Compound 10, (3aR,5s,6aS)-2-(1-(tetrabydro-2H-pyran-4-yl)ethyl)-N-(6-(2,3,5-trifluorophenyl)pyridazin-3-yl)octahydrocyclopenta[c]pyrrol-5-amine] | 4% | 5.7 nM |
| [2H]C([2H])([C@H]1CCOC1)N1C[C@H]2C[C@H](Nc3ccc(-c4cc(F)cc(F)c4F)nn3)C[C@H]2C1 [Compound 41, (3aR,5s,6aS)-2-(((R)-tetrahydrofuran-3-yl)methyl-d2)-N-(6-(2,3,5-trifluorophenyl)pyridazin-3-yl)octahydrocyclopenta[c]pyrrol-5-amine] | 3% | 64.6 nM |
| [2H]C([2H])([C@@H]1CC12CCOCC2)N1C[C@H]2C[C@H](Nc3ccc(-c4cc(F)cc(F)c4F)nn3)C[C@H]2C1 [Compound 77, (3aR,5s,6aS)-2-((6-oxaspiro[2.5]octan-1-yl)methyl-d2)-N-(6-(2,3,5-trifluorophenyl)pyridazin-3-yl)octahydrocyclopenta[c]pyrrol-5-amine] | 3% | 2.1 nM |
| [2H]C([2H])(COC(C)(C)C)N1C[C@H]2C[C@H](Nc3ccc(-c4cc(F)cc(F)c4F)nn3)C[C@H]2C1 [Compound 56, (3aR,5s,6aS)-2-(2-(tert-butoxy)ethyl-1,1-d2)-N-(6-(2,3,5-trifluorophenyl)pyridazin-3-yl)octahydrocyclopenta[c]pyrrol-5-amine] | 3% | 3 nM |
| Fc1cc(F)c(F)c(-c2ccc(N[C@H]3C[C@@H]4CN(Cc5ccccc5F)C[C@@H]4C3)nn2)c1 [Compound 89, (3aR,55,6aS)-2-(2-fluorobenzyl)-N-(6-(2,3,5-trifluoropheny)pyridazin-3-yl)octahydrocyclopenta[c]pyrrol-5-amine] | 3% | 170 nM |
| CC1(C)CC(N2C[C@H]3C[C@H](Nc4ccc(-c5cc(F)cc(F)c5F)nn4)C[C@H]3C2)CC(C)(C)O1 [Compound 7, (3aR,5s,6aS)-2-(2,2,6,6-tetramethyltetrahydro-2H-pyran-4-yl)-N-(6-(2,3,5-trifluorophenyl)pyridazin-3-yl)octahydrocyclopenta[c]pyrrol-5-amine] | 4% | 215 nM |
| [2H]C([2H])(C1CCCOCC1)N1C[C@H]2C[C@H](Nc3ccc(-c4cc(F)cc(F)c4F)nn3)C[C@H]2C1 (stereo partly drawn) [Compound 78, (3aR,5s,6aS)-2-(oxepan-4-ylmethyl-d2)-N-(6-(2,3,5-trifluorophenyl)pyridazin-3-yl)octahydrocyclopenta[c]pyrrol-5-amine] | 2% | 1.2 nM |
| [2H]C(C)(C1CCOCC1)N1C[C@H]2C[C@H](Nc3ccc(-c4cc(F)cc(F)c4F)nn3)C[C@H]2C1 (stereo partly drawn) [Compound 12, (3aR,5s,6aS)-2-(1-(tetrahydro-2H-pyran-4-yl)ethyl-1-d)-N-(6-(2,3,5-trifluorophenyl)pyridazin-3-yl)octahydrocyclopenta[c]pyrrol-5-amine] | 3% | 8.64 nM |
| [2H]C([2H])(C1CCOCC1)N1C[C@H]2C[C@H](Nc3ccc(-c4cc(F)cc(F)c4F)nn3)C[C@H]2C1 [Compound 81, (3aR,5s,6aS)-2-((tetrahydro-2H-pyran-4-yl)methyl-d2)-N-(6-(2,3,5-trifluorophenyl)pyridazin-3-yl)octahydrocyclopenta[c]pyrrol-5-amine] | 3% | 6.7 nM |

The remaining lines, values ahead:

| Human M4 Emin | IC50 | Compound |
| --- | --- | --- |
| 3% | 38 nM | Cc1cccc(CN2C[C@H]3C[C@H](Nc4ccc(-c5cc(F)cc(F)c5F)nn4)C[C@H]3C2)n1 [Compound 16, (3aR,5s,6aS)-2-((6-methylpyridin-2-yl)methyl)-N-(6-(2,3,5-trifluorophenyl)pyridazin-3-yl)octahydrocyclopenta[c]pyrrol-5-amine] |
| 8% | 4500 nM | [2H]C([2H])(CCOC)N1C[C@H]2C[C@H](Nc3ccc(-c4cc(F)cc(F)c4F)nn3)C[C@H]2C1 [Compound 80, (3aR,5s,6aS)-2-(3-methoxypropyl-1,1-d2)-N-(6-(2,3,5-trifluorophenyl)pyridazin-3-yl)octahydrocyclopenta[c]pyrrol-5-amine] |
| 3% | 25 nM | Fc1cc(F)c(F)c(-c2ccc(N[C@H]3C[C@@H]4CN(CC5CC(F)(F)C5)C[C@@H]4C3)nn2)c1 [Compound 57, (3aR,5s,6aS)-2-((3,3-difluorocyclobutyl)methyl)-N-(6-(2,3,5-trifluorophenyl)pyridazin-3-yl)octahydrocyclopenta[c]pyrrol-5-amine] |
| 4% | 210 nM | CCOCCN1C[C@H]2C[C@H](Nc3ccc(-c4cc(F)cc(F)c4F)nn3)C[C@H]2C1 [Compound 74, (3aR,5s,6aS)-2-(2-ethoxyethyl)-N-(6-(2,3,5-trifluorophenyl)pyridazin-3-yl)octahydrocyclopenta[c]pyrrol-5-amine] |
| 3% | 0.47 nM | Fc1cc(F)c(F)c(-c2ccc(N[C@H]3C[C@@H]4CN(C[C@H]5[C@@H]6COC[C@@H]65)C[C@@H]4C3)nn2)c1 [Compound 71, (3aR,5s,6aS)-2-(((1R,58,6s)-3-oxabicyclo[3.1.0]hexan-6-yl)methyl)-N-(6-(2,3,5-trifluorophenyl)pyridazin-3-yl)octahydrocyclopenta[c]pyrrol-5-amine] |
| 4% | 79 nM | COCCCN1C[C@H]2C[C@H](Nc3ccc(-c4cc(F)cc(F)c4F)nn3)C[C@H]2C1 [Compound 75, (3aR,5s,6aS)-2-(3-methoxypropyl)-N-(6-(2,3,5-trifluorophenyl)pyridazin-3-yl)octahydrocyclopenta[c]pyrrol-5-amine] |
| 5% | 120 nM | [2H]C([2H])(COCC)N1C[C@H]2C[C@H](Nc3ccc(-c4cc(F)cc(F)c4F)nn3)C[C@H]2C1 [Compound 79, (3aR,5s,6aS)-2-(2-ethoxyethyl-1,1-d2)-N-(6-(2,3,5-trifluorophenyl)pyridazin-3-yl)octahydrocyclopenta[c]pyrrol-5-amine] |
| 4% | 24.3 nM | Cc1ccc(CN2C[C@H]3C[C@H](Nc4ccc(-c5cc(F)cc(F)c5F)nn4)C[C@H]3C2)nc1 [Compound 18, (3aR,5s,6aS)-2-((5-methylpyridin-2-yl)methyl)-N-(6-(2,3,5-trifluorophenyl)pyridazin-3-yl)octahydrocyclopenta[c]pyrrol-5-amine] |
| 3% | 32 nM | CC(C)(C)CCN1C[C@H]2C[C@H](Nc3ccc(-c4cc(F)cc(F)c4F)nn3)C[C@H]2C1 [Compound 51, (3aR,5s,6aS)-2-(3,3-dimethylbutyl)-N-(6-(2,3,5-trifluorophenyl)pyridazin-3-yl)octahydrocyclopenta[c]pyrrol-5-amine] |
| 4% | 3.09 nM | Fc1cc(F)c(F)c(-c2ccc(N[C@H]3C[C@@H]4CN(CCC5CCOCC5)C[C@@H]4C3)nn2)c1 [Compound 4, (3aR,5s,6aS)-2-(2-(tetrahydro-2H-pyran-4-yl)ethyl)-N-(6-(2,3,5-trifluorophenyl)pyridazin-3-yl)octahydrocyclopenta[c]pyrrol-5-amine] |
| 2% | 57.1 nM | COc1cccc(CN2C[C@H]3C[C@H](Nc4ccc(-c5cc(F)cc(F)c5F)nn4)C[C@H]3C2)n1 [Compound 17, (3aR,5s,6aS)-2-((6-methoxypyridin-2-yl)methyl)-N-(6-(2,3,5-trifluorophenyl)pyridazin-3-yl)octahydrocyclopenta[c]pyrrol-5-amine] |
